Results published in ChEMBL document CHEMBL1201862, “PubChem BioAssay data set” (2004).
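Where inhibition never reached the appropriate level, the endpoint shown equals the highest concentration tested. Otherwise, values were interpolated linearly from a five-concentration, 48-hour dose response in 96-well plates. Abbreviation: GI50, concentration required for 50% inhibition of growth.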 Calls of active or inactive are those of the source. Cut-off read from the data, not from the text of the source: active = GI50 up to about 1.1 µM and inactive = higher.

Assays:
Assay in all cases: NCI-60 cell line screen, 48 h
LOX IMVI = system: LOX IMVI
UACC-62 = system: UACC-62
MDA-N = system: MDA-N
OVCAR-8 = system: OVCAR-8
SK-OV-3 = system: SK-OV-3
CCRF-CEM = system: CCRF-CEM
HCT-116 = system: HCT-116
OVCAR-3 = system: OVCAR-3
OVCAR-5 = system: OVCAR-5
CAKI-1 = system: CAKI-1
SR = system: SR
786-0 = system: 786-0
UO-31 = system: UO-31
MCF7 = system: MCF7
K562 = system: K562
HL-60 = system: HL-60
MDA-MB-231 = system: MDA-MB-231
SN12C = system: SN12C
UACC-257 = system: UACC-257
BT-549 = system: BT-549
SW-620 = system: SW-620
HCC 2998 = system: HCC 2998
NCI-H460 = system: NCI-H460
ACHN = system: ACHN
HT-29 = system: HT-29
SK-MEL-5 = system: SK-MEL-5
SK-MEL-28 = system: SK-MEL-28
HCT-15 = system: HCT-15
MDA-MB-435 = system: MDA-MB-435
PC-3 = system: PC-3
U-251 = system: U-251
SK-MEL-2 = system: SK-MEL-2
SF-295 = system: SF-295
Hs-578T = system: Hs-578T
Malme-3M = system: Malme-3M
TK-10 = system: TK-10
HOP-92 = system: HOP-92
NCI/ADR-RES = system: NCI/ADR-RES
M14 = system: M14
OVCAR-4 = system: OVCAR-4
NCI-H522 = system: NCI-H522
EKVX = system: EKVX
HOP-62 = system: HOP-62
COLO 205 = system: COLO 205
IGROV-1 = system: IGROV-1
NCI-H23 = system: NCI-H23
NCI-H226 = system: NCI-H226
A549 = system: A549
RXF 393 = system: RXF 393
T47D = system: T47D
DU-145 = system: DU-145
SNB-19 = system: SNB-19
A498 = system: A498
KM12 = system: KM12
RPMI-8226 = system: RPMI-8226
SF-268 = system: SF-268
SNB-75 = system: SNB-75
MOLT-4 = system: MOLT-4
SF-539 = system: SF-539

Measured: GI50

Cn1cnc([N+](=O)[O-])c1Sc1nc(N)nc2c1ncn2Cc1ccccc1
18 µM: HCT-15
inactive: LOX IMVI 19.6 µM | UACC-62 16.3 µM | MDA-N 19.4 µM | OVCAR-8 18.1 µM | SK-OV-3 24.5 µM | CCRF-CEM 13.9 µM | HCT-116 20.7 µM | OVCAR-3 2.29 µM | OVCAR-5 23.2 µM | CAKI-1 13.3 µM | SR 17.9 µM | 786-0 19 µM | UO-31 15.5 µM | MCF7 35.4 µM | K562 20.5 µM | HL-60 18.9 µM | MDA-MB-231 19.7 µM | SN12C 15.8 µM | UACC-257 14.3 µM | BT-549 22.1 µM | SW-620 22.9 µM | HCC 2998 15.9 µM | NCI-H460 17.8 µM | ACHN 15.3 µM | HT-29 22.5 µM | SK-MEL-5 19 µM | SK-MEL-28 20.5 µM | MDA-MB-435 21.6 µM | PC-3 11.6 µM | U-251 21.8 µM | SK-MEL-2 15.8 µM | SF-295 44.9 µM | Hs-578T 20.5 µM | Malme-3M 13.2 µM | TK-10 15.8 µM | HOP-92 12 µM | NCI/ADR-RES 51.9 µM | M14 22.9 µM | OVCAR-4 20.8 µM | NCI-H522 10.2 µM | EKVX 11.5 µM | HOP-62 19.7 µM | COLO 205 16.2 µM | IGROV-1 14.5 µM | NCI-H23 19.2 µM | NCI-H226 23.9 µM | A549 25.5 µM | RXF 393 19.5 µM | T47D 13.8 µM | DU-145 20.8 µM | SNB-19 42.7 µM | A498 25 µM | KM12 30 µM | RPMI-8226 19 µM | SF-268 16.5 µM | SNB-75 20.4 µM

CC(=O)Oc1ccc2c(c1)c1c(OC(C)=O)c3ccccc3c(OC(C)=O)c1n2Cc1cccc(C)c1
53.7 µM: HCT-15
inactive: UACC-62 45.4 µM | MDA-N 60.4 µM | OVCAR-8 48.6 µM | SK-OV-3 20.4 µM | CCRF-CEM 17.1 µM | HCT-116 33.2 µM | OVCAR-3 21.4 µM | OVCAR-5 34.4 µM | CAKI-1 40.3 µM | SR 24.3 µM | 786-0 36.2 µM | MOLT-4 34.6 µM | UO-31 40 µM | MCF7 44.3 µM | K562 32.1 µM | HL-60 42.4 µM | MDA-MB-231 31.1 µM | SN12C > 100 µM | BT-549 35.1 µM | HCC 2998 22.8 µM | NCI-H460 30.3 µM | ACHN 31.8 µM | HT-29 > 100 µM | SK-MEL-28 > 100 µM | MDA-MB-435 65.6 µM | PC-3 52.4 µM | U-251 22.3 µM | SK-MEL-2 20 µM | SF-295 19.5 µM | Hs-578T 24.9 µM | Malme-3M 77.6 µM | TK-10 50.8 µM | HOP-92 1.5 µM | NCI/ADR-RES > 100 µM | M14 30.3 µM | OVCAR-4 33.3 µM | NCI-H522 19.6 µM | SF-539 25.1 µM | EKVX 15.8 µM | HOP-62 25.3 µM | COLO 205 60.5 µM | IGROV-1 21.2 µM | NCI-H23 38.7 µM | NCI-H226 > 100 µM | A549 31.3 µM | RXF 393 38.9 µM | T47D 21.8 µM | DU-145 > 100 µM | SNB-19 67 µM | A498 29.3 µM | KM12 28.4 µM | RPMI-8226 20.5 µM | SF-268 29.8 µM | SNB-75 18.5 µM

COC(=O)c1c(O)ccc2c1c1cc3ccccc3c(O)c1n2Cc1ccccc1Cl
inactive: UACC-62 23.4 µM | MDA-N 23.7 µM | OVCAR-8 25.3 µM | SK-OV-3 12.9 µM | CCRF-CEM 34.7 µM | HCT-116 13.2 µM | OVCAR-3 15.7 µM | OVCAR-5 34.9 µM | CAKI-1 22.4 µM | SR 25.4 µM | 786-0 22.3 µM | MOLT-4 16.6 µM | UO-31 22.1 µM | MCF7 30.3 µM | K562 31.5 µM | HL-60 32.8 µM | MDA-MB-231 32.3 µM | SN12C 32.7 µM | UACC-257 47.5 µM | BT-549 32.8 µM | HCC 2998 20 µM | NCI-H460 18.2 µM | ACHN 22.4 µM | HT-29 11.7 µM | SK-MEL-5 19.1 µM | SK-MEL-28 14.5 µM | MDA-MB-435 18.5 µM | PC-3 30 µM | U-251 31.4 µM | SK-MEL-2 17.7 µM | SF-295 18.8 µM | Hs-578T 27.1 µM | Malme-3M 30.3 µM | TK-10 37.2 µM | HOP-92 16.9 µM | NCI/ADR-RES 21.8 µM | M14 23.4 µM | OVCAR-4 11.6 µM | NCI-H522 8.26 µM | SF-539 17.3 µM | EKVX 25.8 µM | HOP-62 26.1 µM | COLO 205 16.8 µM | IGROV-1 19.4 µM | NCI-H23 18.4 µM | NCI-H226 31.8 µM | A549 23.5 µM | RXF 393 23 µM | T47D 12.2 µM | DU-145 31.3 µM | SNB-19 59.4 µM | A498 > 100 µM | KM12 19.3 µM | RPMI-8226 20.4 µM | SF-268 19.3 µM
19.2 µM: HCT-15

Clc1cccc2[nH]ncc12
inactive: LOX IMVI 58.1 µM | UACC-62 > 100 µM | MDA-N > 100 µM | OVCAR-8 > 100 µM | SK-OV-3 > 100 µM | CCRF-CEM > 100 µM | HCT-116 66.7 µM | OVCAR-3 > 100 µM | OVCAR-5 > 100 µM | CAKI-1 68.4 µM | SR 30.6 µM | 786-0 > 100 µM | MOLT-4 > 100 µM | MCF7 64.6 µM | K562 > 100 µM | HL-60 > 100 µM | MDA-MB-231 > 100 µM | SN12C > 100 µM | UACC-257 > 100 µM | BT-549 36.1 µM | SW-620 > 100 µM | HCC 2998 > 100 µM | NCI-H460 > 100 µM | ACHN > 100 µM | HT-29 > 100 µM | SK-MEL-5 > 100 µM | SK-MEL-28 > 100 µM | MDA-MB-435 > 100 µM | PC-3 > 100 µM | U-251 > 100 µM | SK-MEL-2 > 100 µM | SF-295 > 100 µM | Hs-578T 76 µM | TK-10 > 100 µM | HOP-92 > 100 µM | NCI/ADR-RES > 100 µM | OVCAR-4 > 100 µM | NCI-H522 26.5 µM | SF-539 > 100 µM | EKVX 32.4 µM | HOP-62 > 100 µM | COLO 205 74.6 µM | IGROV-1 > 100 µM | NCI-H226 > 100 µM | A549 > 100 µM | RXF 393 51.8 µM | T47D 16.6 µM | DU-145 > 100 µM | SNB-19 > 100 µM | A498 > 100 µM | KM12 > 100 µM | RPMI-8226 > 100 µM | SNB-75 45.3 µM
> 100 µM: HCT-15

C=C(C)[C@H]1C2=CC(C)=C(O2)[C@@H](O)[C@H](C(=C)C)CCC2=C[C@H]1OC2=O [KALLOLIDE A]
> 100 µM: HCT-15
inactive: LOX IMVI > 100 µM | UACC-62 > 100 µM | MDA-N > 100 µM | OVCAR-8 > 100 µM | CCRF-CEM > 100 µM | OVCAR-3 > 100 µM | OVCAR-5 > 100 µM | CAKI-1 > 100 µM | SR 99.5 µM | 786-0 > 100 µM | MOLT-4 > 100 µM | UO-31 > 100 µM | MCF7 > 100 µM | K562 > 100 µM | HL-60 > 100 µM | MDA-MB-231 > 100 µM | SN12C > 100 µM | UACC-257 > 100 µM | BT-549 > 100 µM | SW-620 > 100 µM | HCC 2998 > 100 µM | NCI-H460 > 100 µM | ACHN > 100 µM | SK-MEL-5 > 100 µM | SK-MEL-28 > 100 µM | MDA-MB-435 > 100 µM | PC-3 > 100 µM | U-251 > 100 µM | SK-MEL-2 > 100 µM | SF-295 > 100 µM | Hs-578T > 100 µM | Malme-3M > 100 µM | TK-10 > 100 µM | HOP-92 > 100 µM | NCI/ADR-RES > 100 µM | M14 > 100 µM | OVCAR-4 > 100 µM | NCI-H522 87.7 µM | SF-539 > 100 µM | EKVX > 100 µM | COLO 205 > 100 µM | IGROV-1 > 100 µM | NCI-H226 > 100 µM | A549 > 100 µM | RXF 393 > 100 µM | T47D > 100 µM | DU-145 > 100 µM | SNB-19 > 100 µM | A498 > 100 µM | KM12 > 100 µM | RPMI-8226 > 100 µM | SF-268 > 100 µM | SNB-75 > 100 µM
